Measurements reported in patent publication US20210221784A1, “COMPOUNDS AND COMPOSITIONS FOR THE TREATMENT OF PAIN” (Université de Strasbourg, priority 2018, published 2021).

Columns and labels:
hNPFFR2 = target: T1, hNPFFR2 (Homo sapiens, UniProt Q9Y5X5); test: Radioligand binding competition, membranes from CHO cells expressing hNPFFR2; settings: 0.015 nM [D-Tyr1[125I], N-MePhe3]-NPFF, 1 hr at 25° C., read-out: NPFF2-R Ki
T1 construct: expressed in transfected cells; membranes
Protocol: (§1) Competition experiments with membranes from CHO cells stably expressing hNPFFR1 and hNPFFR2 were performed essentially as described in Elhabazi, K., et al. Neuropharmacology, 2013. 75C, 164-171., Briefly, hNPFFR1 or hNPFFR2 membranes (5 to 10 μg of proteins) were incubated (1 hr at 25° C.; 0.25 mL total volume) with 0.015 nM [D-Tyr1[125I], N-MePhe3]-NPFF (Hartmann Analytic GmbH) in 50 mM HEPES (pH 7.4), 1 mM CaCl2, 1 mM MgCl2 and 0.1% bovine serum albumin. Non-specific binding was determined in the presence of 10 μM RFRP-3. Incubation was terminated by rapid filtration through a 96-well GF/B unifilter apparatus (Perkin Elmer Life and Analytical Sciences, Courtaboeuf, France). Unifilters were washed five times with binding buffer, then dried for 1 h at 65° C. After addition of 40 μL scintillation cocktail (Microscint-O, Perkin Elmer) per well, bound radioactivity was determined on a TopCount scintillation counter (Perkin Elmer).

[1] = target: T2, human NPFFR1 (hNPFFR1) receptor (Homo sapiens, UniProt Q9GZQ6); test: Human NPFFR1 evaluation using BRET biosensors in HEK-293 T cells; assay type: cell-based; settings: hNPFFR1 in HEK-293 T cells, stimulated by EC80 RFRP-3, read-out: IC50 of antagonist activity
T2 construct: expressed in transfected cells; host or cells: HEK-293 T cells, transient co-transfection
T2 sequence (Q9GZQ6 whole entry): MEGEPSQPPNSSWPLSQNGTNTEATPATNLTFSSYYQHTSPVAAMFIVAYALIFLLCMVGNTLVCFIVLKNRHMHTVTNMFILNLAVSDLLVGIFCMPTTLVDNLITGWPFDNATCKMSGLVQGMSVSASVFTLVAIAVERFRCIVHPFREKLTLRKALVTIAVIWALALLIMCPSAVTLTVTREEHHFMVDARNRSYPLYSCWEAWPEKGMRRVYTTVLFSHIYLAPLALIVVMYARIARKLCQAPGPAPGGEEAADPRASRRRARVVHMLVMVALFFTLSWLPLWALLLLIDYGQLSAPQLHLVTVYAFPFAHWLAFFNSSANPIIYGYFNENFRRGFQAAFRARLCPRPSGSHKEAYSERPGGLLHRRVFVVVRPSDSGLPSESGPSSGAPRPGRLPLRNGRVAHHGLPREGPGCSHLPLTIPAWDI
Protocol: Compounds of the present invention were tested successively for their agonist and antagonist activities on human NPFFR1 (hNPFFR1) receptor transiently over-expressed in HEK-293 T cells. Compounds exert agonist activity if, by themselves in absence of neuropeptide RFRP-3 (also named NPVF) they activate hNPFFR1; and they exert antagonist activity if they decrease the action of RFRP-3 on the receptor. The assay used to measure compound activity is based on BRET (Bioluminescence Resonance Energy Transfer) biosensors and is designed to monitor the plasma membrane translocation of protein that interacts with specific Ga subunit. The specific effector (luciferase tagged: BRET donor) recruited at the membrane will be in close proximity to a plasma membrane anchor (GFP tagged: BRET acceptor) to induce a BRET signal (Ramdan et al, 2006, Chapter 5, Current Protocols in Neuroscience).
HEK-293 T cells are maintained in Dulbecco's Modified Eagle's Medium supplemented with 10% Foetal Calf Serum, 1% Penicillin/Streptomycin at 37° C./5% CO2. Cells are co-transfected using polyethylenimine (25 kDa linear) with four DNA plasmids encoding; hNPFFR1, GαoB, a Gi family specific intracellular effector fused to luciferase (BRET donor), a plasma membrane effector fused to GFP (BRET acceptor). After transfection, cells are cultured for 48 h at 37° C./5% CO2.
Receptor activity is detected by changes in BRET signal.
On the day of the assay, cells are detached using trypsin 0.05%, resuspended in assay buffer (1.8 mM CaCl2, 1 mM MgCl2, 2.7 mM KCl, 137 mM NaCl, 0.4 mM NaH2PO4, 5.5 mM D-Glucose, 11.9 mM NaHCO3, 25 mM Hepes) and seeded in 384 well plate at a density of 20,000 cells per well. Then, plates are equilibrated 3.5 hours at 37° C. before adding compounds.
Compounds and luciferase substrate are added to the cells using an automated device (Freedom Evo®, Tecan) and BRET readings are collected on EnVision (PerkinElmer) with specific filters (410 nm BW 80 nm, 515 nm BW 30 nm).
Agonist and antagonist activities of compounds are consecutively evaluated on the same cell plate. Agonist activity is first measured after 10 minutes incubation with compound alone on the cells. Then, cells are stimulated by an EC80 RFRP-3 concentration and luminescence is recorded for additional 10 minutes. EC80 RFRP-3 concentration is the concentration giving 80% of the maximal RFRP-3 response. Agonist or antagonist activities are evaluated in comparison to basal signals evoked by assay buffer or EC80 RFRP-3 alone, respectively.
For IC50 determination, a dose-response test is performed using 20 concentrations (ranging over 6 logs) of each compound. Dose-response curves are fitted using the sigmoidal dose-response (variable slope) analysis in GraphPad Prism software (GraphPad Software) and IC50 of antagonist activity is calculated. Dose-response experiments are performed in duplicate, in two independent experiments.

hNPFFR1 = target: T3, hNPFFR1 (Homo sapiens, UniProt Q9GZQ6); test: Radioligand binding competition, membranes from CHO cells expressing hNPFFR1; settings: 0.015 nM [D-Tyr1[125I], N-MePhe3]-NPFF, 1 hr at 25° C., read-out: NPFF1-R Ki
T3 construct: expressed in transfected cells; membranes
T3 sequence (Q9GZQ6 whole entry): as above
Protocol: as §1

T1 sequence (Q9Y5X5 whole entry): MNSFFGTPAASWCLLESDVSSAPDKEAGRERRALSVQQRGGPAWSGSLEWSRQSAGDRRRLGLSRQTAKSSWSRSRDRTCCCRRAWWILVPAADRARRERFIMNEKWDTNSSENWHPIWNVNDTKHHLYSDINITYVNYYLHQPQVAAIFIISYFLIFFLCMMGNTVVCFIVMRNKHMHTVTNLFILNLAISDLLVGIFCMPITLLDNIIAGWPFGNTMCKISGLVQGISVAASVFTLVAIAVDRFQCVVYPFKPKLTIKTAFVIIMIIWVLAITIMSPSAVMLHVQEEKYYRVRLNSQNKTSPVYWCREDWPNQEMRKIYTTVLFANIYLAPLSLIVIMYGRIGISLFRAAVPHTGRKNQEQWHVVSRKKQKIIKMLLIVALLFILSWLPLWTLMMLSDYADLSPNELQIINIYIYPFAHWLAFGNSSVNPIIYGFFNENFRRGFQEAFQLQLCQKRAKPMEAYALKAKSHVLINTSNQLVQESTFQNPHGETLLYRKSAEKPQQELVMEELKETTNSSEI

SMILES	Ki (hNPFFR2) [nM]	IC50 [1] [nM]	Ki (hNPFFR1) [nM]
COc1ccccc1-c1ccc(N)nc1C1CC1 [Compound 6i, 6-cyclopropyl-5-(2-methoxyphenyl)pyridin-2-amine]	1400	500 to 1000	31
CC(C)COc1ccccc1-c1ccc(N)nc1N [Compound 2g, 3-(2-isobutoxyphenyl) pyridine-2,6-diamine]	700	100 to 500	9
COc1cc(F)ccc1-c1ccc(N)nc1N [Compound 2k, 3-(4-fluoro-2-methoxyphenyl) pyridine-2,6-diamine]	3200	500 to 1000	27.6
COc1cccc(-c2ccc(N)nc2N)c1OC [Compound 2l, 3-(2,3-dimethoxyphenyl) pyridine-2,6-diamine]	900	> 1000	26
Nc1ccc(-c2cc(Cl)cc(Cl)c2)c(N)n1 [Compound 1o, 3-(3,5-dichlorophenyl) pyridine-2,6-diamine]	~5000	> 1000	~500
CCNc1nc(N)ccc1-c1cccc(Cl)c1Cl [Compound 5b, 3-(2,3-dichlorophenyl)-N2-ethylpyridine-2,6-diamine]	2200	500 to 1000	79.2
Nc1ccc(-c2ccc(Cl)cc2)c(N)n1 [Compound 1i, 3-(4-chlorophenyl)pyridine-2,6-diamine]	8800	> 1000	786
Nc1ccc(-c2ccccc2OC2CCCC2)c(N)n1 [Compound 2i, 3-(2-(cyclopentyloxy)phenyl)pyridine-2,6-diamine]	280	100 to 500	4
Cc1ccccc1-c1c(C)cc(N)nc1N [Compound 8b, 4-methyl-3-(o-tolyl)pyridine-2,6-diamine]	4600	> 1000	183
COCc1ccccc1-c1ccc(N)nc1N [Compound 1g, 3-(2-(methoxymethyl)phenyl) pyridine-2,6-diamine]	1200	500 to 1000	58
Nc1ccc(Cc2ccc(F)cc2)c(N)n1 [Compound 10b, 3-(4-fluorobenzyl)pyridine-2,6-diamine]	4200	> 1000	122
CC(C)Nc1nc(N)ccc1-c1cccc(Cl)c1Cl [Compound 5e, 3-(2,3-dichlorophenyl)-N2-isopropylpyridine-2,6-diamine]	1900	> 1000	250
COc1ccccc1-c1ccc(N)nc1N [Compound 2b, 3-(2-methoxyphenyl) pyridine-2,6-diamine]	3000	100 to 500	13.8
Nc1ccc(-c2cccc(Cl)c2Cl)cn1 [Compound 6a, 5-(2,3-dichlorophenyl)pyridin-2-amine]	4200	> 1000	577
CC(C)c1ccccc1-c1ccc(N)nc1N [Compound 1e, 3-(2-isopropylphenyl) pyridine-2,6-diamine]	980	100 to 500	8
Nc1ccc(Cc2ccc(Cl)cc2)c(N)n1 [Compound 10c, 3-(4-chlorobenzyl)pyridine-2,6-diamine]	2700	500 to 1000	56
COCc1nc(N)ccc1-c1ccccc1OC [Compound 6e, 6-(methoxymethyl)-5-(2-methoxyphenyl)pyridin-2-amine]	18600	> 1000	461

SMILES	Ki (hNPFFR2) [nM]	IC50 [1] [nM]	Ki (hNPFFR1) [nM]
Nc1ccc(-c2ccccc2C(F)(F)F)c(N)n1 [Compound 1f, 3-(2-(trifluoromethyl)phenyl) pyridine-2,6-diamine]	6700	500 to 1000	22.4
CCc1ccccc1-c1ccc(N)nc1N [Compound 1d, 3-(2-ethylphenyl)pyridine-2,6-diamine]	2000	100 to 500	6.2
Nc1ccc(-c2ccccc2O)c(N)n1 [Compound 2a, 2-(2,6-diaminopyridin-3-yl)phenol]	1100	500 to 1000	11.8
Nc1ccc(Cc2ccccc2Cl)c(N)n1 [Compound 10e, 3-(2-chlorobenzyl)pyridine-2,6-diamine]	450	100 to 500	3.7
Nc1ccc(Cc2ccc(Cl)cc2Cl)c(N)n1 [Compound 10f, 3-(2,4-dichlorobenzyl)pyridine-2,6-diamine]	500	100 to 500	3.7
Cc1nc(N)ccc1-c1cccc(Cl)c1Cl [Compound 6b, 5-(2,3-dichlorophenyl)-6-methylpyridin-2-amine]	2000	500 to 1000	81.4
CCc1nc(N)ccc1-c1cccc(Cl)c1Cl [Compound 6c, 5-(2,3-dichlorophenyl)-6-ethylpyridin-2-amine]	800	500 to 1000	25
Nc1ccc(-c2ccc(Cl)c(Cl)c2)c(N)n1 [Compound 1n, 3-(3,4-dichlorophenyl) pyridine-2,6-diamine]	2560	> 1000	313
CCOc1ccccc1-c1ccc(N)nc1N [Compound 2d, 3-(2-ethoxyphenyl)pyridine-2,6-diamine]	700	100 to 500	15
Nc1ccc(-c2ccc(Cl)cc2Cl)c(N)n1 [Compound 1k, 3-(2,4-dichlorophenyl) pyridine-2,6-diamine]	1180	100 to 500	28
Nc1ccc(Cc2ccccc2)c(N)n1 [Compound 10a, 3-benzylpyridine-2,6-diamine]	2800	> 1000	76 ± 12
Nc1ccc(Cc2cccc(Cl)c2)c(N)n1 [Compound 10d, 3-(3-chlorobenzyl)pyridine-2,6-diamine]	900	500 to 1000	19
CCCCOc1ccccc1-c1ccc(N)nc1N [Compound 2e, 3-(2-butoxyphenyl)pyridine-2,6-diamine]	1800	100 to 500	10.5
Nc1ccc(-c2cccc(Cl)c2)c(N)n1 [Compound 1h, 3-(3-chlorophenyl)pyridine-2,6-diamine]	300	500 to 1000	90
CCc1nc(N)ccc1-c1ccccc1OC [Compound 6d, 6-ethyl-5-(2-methoxyphenyl)pyridin-2-amine]	960	100 to 500	15.2
Nc1ccc(-c2ccccc2-c2ccccc2)c(N)n1 [Compound 1r, 3-([1,1′-biphenyl]-2-yl)pyridine-2,6-diamine]	700	100 to 500	20.7
COc1ccccc1-c1ccc(N)nc1C(C)C [Compound 6h, 6-isopropyl-5-(2-methoxyphenyl)pyridin-2-amine]	1500	500 to 1000	35.7
